Patent US20040235900A1, “Antimicrobial oxazolifinones with improved pharmacokinetic profile and safety advantages” (priority 2002, published 2004)
Converted amounts (≈) assume the structure as drawn.

What was measured:
[1] = test system: Methicillin Resistant Staphylococcus aureus MRSA-32; test: In-vitro MIC test (agar dilution), MRSA-32; type: cell-based; conditions: Staphylococcus aureus, MRSA; Mueller Hinton agar, 24 hrs at 35° C.; read-out: Minimum Inhibitory Concentrations (MIC) MRSA-32
Description: The test methods used for verifying the antimicrobial action of compound within the scope of this invention are essentially the same as those described in PCT WO 95/25106, U.S. Pat. No. 5,668,286 and EP 0 750, 618 B1, with the difference that the strains of the organisms used for the MIC determinations in these patents and applications are Staphylococcus aureus ATCC 25923, Staphylococcus epidermidis ATCC 12828, Streptococcus pyogenes ATCC 19615.
The in-vitro MIC methods of test compounds were determined essentially as described in PCT WO 95/25106, U.S. Pat. No. 5,668,286 and EP 0 750 618 B1.
Overnight grown cultures of S. aureus organisms in Tryptic Soya broth were diluted in Mueller Hinton Broth to give optical density matching with MacFarland tube 0.5 standard. Cultures were further diluted 1:10 in Mueller Hinton broth. Using Denley's mutipoint inoculator, 10^4 cells were deposited on Mueller Hinton agar (Difco) containing range of 2 fold dilutions of test compounds. These plates were incubated for 24 hrs at 35° C. and MIC results recorded. MIC is defined as minimum drug concentration that inhibits test organisms. For determining MIC of test compounds against Streptococcus pneumoniae, Mueller Hinton agar containing 5% sheep blood was employed.

[2] = test system: reticulocytes; test: Myelosuppressive potential: reticulocyte counts, 14-day oral dosing; type: in vivo, Wistar rats
Experimental: A group of 6 Wistar rats (3 male and 3 female) was exposed to a representative compound of the invention viz. compound No. 4 of the invention, by oral route at a single dose of 50 mg/kg per day for 14 consecutive days. Compound No.30 of U.S. Pat. No. 5,668,286 was also subjected to the same protocol. Linezolid (LNZ) was used as a comparator drug and was administered to rats (by oral route at a dose of 2×25 mg/kg per day for 14 consecutive days. Vehicle treated controls were maintained using identical experimental conditions. The treated as well as control rats were sacrificed 24 hr after the last dose.
A second parameter measured was the change in reticulocyte count, for which the following method was used.
Blood was collected on day 15 (24 hours after the last dose administration) from all the treated as well as control rats by retro-orbital sinus puncture using clean glass rat capillary tubes. […]
3 slides/animal were prepared according to NCCLS staining procedure for reticulocyte staining and counting. […] The percentage presence of reticulocyte was determined in 1000 erythrocytes and was expressed in terms of percentage of reticulocytes over erythrocytes. […]
Values in each of the first two columns above represent ratio of relative weight (calculated organ to body weight ratio) of spleen or thymus in drug treated animals v/s control animals. […]

[3] = Pharmacokinetic study, single I.V. bolus dose in beagle dog; type: in vivo; conditions: iv, single I.V. bolus dose 15 mg/kg (table title), Compound No. 4 and linezolid in 5% Tween, other compounds in cyclodextrin, serum; for concentration at 12 hr: read-out: C-12 hr; for AUC(0-t): read-out: AUC (0-24 hr)
Experimental: Blood samples were collected at time points of 0, 0.08 (not for oral), 0.25, 0.50, 1.0, 1.5, 2.0, 3.0, 4.0, 5.0, 6.0, 8.0, 10.0, 12.0 and 24.0 hours. To facilitate i.v. dosing and collection of blood samples, the dogs were implanted with cannula in cephalic vein. Serum obtained from blood samples was used for HPLC-based analysis.
Serum samples were extracted by solid phase extraction technique using Water's OASIS HLB cartridges. An HPLC-Diode array detection system was used for analysis. Prepared samples were chromatographed on a YMC-AM reversed phase column (150×4.6 mm ID; 5 μm) using an isocratic mobile phase acetate buffer (50 mmol ammonium acetate pH 6.6) acetonitrile, 66:34% v/v (for a representative compound of the invention, 68:32% v/v for compound Nos. 30, 3, 7 and 11 of U.S. Pat. No. 5,668,286, and 75:25% v/v for linezolid) at a flow rate of 1 ml/min, measured at λmax 254 nm. Independently prepared analytical standards and quality control samples were analyzed with each set of unknown samples.
The pharmacokinetics of a representative compound of the invention following single I.V. bolus dose administration of the compound in beagle dog is shown in Table 3.

MIC [1] [µg/mL]	change in ratio of percentage reticulocytes of treated animal versus control animal (in words) ([2]; rat, in vivo, po)	Cmax [3] [ng/mL]	concentration at 12 hr [3] [ng/mL]	half-life [3] [h]	AUC(0-t) [3] [ng·h/mL]	Ratio of % reticulocytes Retics (treated animal versus control animal) ([2]; Wistar rats, oral, 14 consecutive days, 50 mg/kg per day (LNZ 2×25 mg/kg per day), blood on day 15, ratio less than 0.75 indicates myelosuppressive potential)	SMILES
2 (≈ 5.34 µM)	no significant change	8280	2640	12.9	80900	–	CC(=O)NC[C@H]1CN(c2ccc(N3CCC(CC#N)CC3)c(F)c2)C(=O)O1 [Compound 4, (S)-N-{3-[4-(4-cyanomethyl-piperidin-1-yl)-3-fluoro-phenyl]-2-oxo-oxazolidin-5-ylmethyl}-acetamide]
2 (≈ 5.93 µM)	–	7160	0	2.41	23300	0.43	CC(=O)NC[C@H]1CN(c2ccc(N3CCOCC3)c(F)c2)C(=O)O1 [Linezolid]
